Counter-ions that a name gives are not always drawn. Like-named read-outs stand apart in the source and are kept apart here.
Experiments:
[1] = biological target: Recombinant human PKC-delta (His-tagged 345-676) (Homo sapiens (Human), UniProt Q05655); assay: PKC-delta inhibition assay (HTRF KinEASE kit), PKC-theta/PKC-delta selectivity; assay type: biochemical; details: ratio; for PKC-theta/PKC-delta selectivity: PKC-theta over PKC-delta, HTRF assays; for PKC-theta/PKC-delta selectivity (binned): binned A to G
Chain of Recombinant human PKC-delta (His-tagged 345-676) (Q05655 345-676): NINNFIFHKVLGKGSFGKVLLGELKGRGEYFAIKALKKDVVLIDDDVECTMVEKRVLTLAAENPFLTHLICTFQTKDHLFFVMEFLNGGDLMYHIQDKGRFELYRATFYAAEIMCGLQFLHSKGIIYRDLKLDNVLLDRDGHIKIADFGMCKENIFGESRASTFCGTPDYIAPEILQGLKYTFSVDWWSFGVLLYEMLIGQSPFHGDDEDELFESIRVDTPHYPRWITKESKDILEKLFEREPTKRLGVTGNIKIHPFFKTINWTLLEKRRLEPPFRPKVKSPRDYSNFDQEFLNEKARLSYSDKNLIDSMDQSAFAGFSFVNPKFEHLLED
Method: (§1) PKC-theta and PKC-delta biochemical activities were measured using the PKC-theta HTRF KinEASEkit kit, according to manufacturer's instructions (Cisbio, catalogue number 61ST1PEJ). Briefly, the kinase buffer component of the kit was supplemented with 10 mM MgCl2, 1 mM DTT and 0.1% Tween 20. For the PKC-theta assay, STK substrate and ATP were added to provide a final assay concentration of 525 nM and 6.5 μM, respectively. For the PKC-delta assay, STK substrate and ATP were added to provide a final assay concentration of 243 nM and 5.7 μM, respectively. The streptavidin_XL665 and STK antibody-cryptate detection reagents were mixed according to the manufacturer's instructions. Test compounds were diluted in DMSO in a series of 10 semi-log step doses; 10 nL of each compound dose were dispensed in 384 well plates. Recombinant human PKC-theta (His-tagged 362-706) or PKC-delta (His-tagged 345-676) was diluted into kinase buffer to provide a final assay concentration of 10 ng/ml and added to the test compound for 30 minutes on ice. The reaction was started by addition of the substrate and ATP and incubated at 25° C. for 30 minutes or 20 minutes for the PKC-theta and PKC-delta assays, respectively. The detection reagents were added, and the plate was incubated in the dark for 2 hours. Fluorescence was measured on an Envision 2103 plate reader with optical setup for […] in the HTRF mode. The ratio of acceptor and donor emission signals was calculated for each well. Percent inhibition values were calculated from the HTRF ratios at different doses and fitted to a 4-parameter logistic curve to determine IC50 values (see Table 1).

[2] = biological target: Recombinant human PKC-theta (His-tagged 362-706) (Homo sapiens (Human), UniProt Q04759); assay: PKC-theta inhibition assay (HTRF KinEASE kit); assay type: biochemical; details: ATP 6.5 μM
Chain of Recombinant human PKC-theta (His-tagged 362-706) (Q04759 362-706): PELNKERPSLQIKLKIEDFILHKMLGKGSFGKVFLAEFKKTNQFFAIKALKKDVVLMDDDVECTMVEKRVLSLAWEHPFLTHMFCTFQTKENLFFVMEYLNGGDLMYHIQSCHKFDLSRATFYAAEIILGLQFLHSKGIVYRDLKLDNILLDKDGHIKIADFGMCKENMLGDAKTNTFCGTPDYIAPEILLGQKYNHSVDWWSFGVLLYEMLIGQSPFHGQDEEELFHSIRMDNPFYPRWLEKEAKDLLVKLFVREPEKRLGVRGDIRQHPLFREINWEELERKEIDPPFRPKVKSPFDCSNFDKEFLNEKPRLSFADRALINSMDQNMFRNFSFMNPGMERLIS
Method: as §1

[3] = tested on: IL-2 secretion by human effector memory T cells (TEM); assay: Effector memory T cells IL-2 release assay; assay type: cell-based; details: T-cell, 24 h
Method: Test compound-mediated inhibition of NFκB signalling in T cells was assessed by quantification of the IL-2 secretion by human effector memory T cells (TEM) upon treatment and stimulation. Human TEM cells were isolated from buffy coats of healthy donors obtained from the French blood bank. First, peripheral blood mononuclear cells (PBMC) were purified from buffy coats diluted 1:1 with DPBS (Gibco, cat #14190-094) by Pancoll (PAN BIOTECH, cat #P04-60500) density gradient centrifugation at 400×g for 20 minutes. TEM cells were further enriched by negative immuno-magnetic cell sorting using a human CD4+ Effector Memory T Cell Isolation Kit (Miltenyi, cat #130-094-125) according to the manufacturer's instructions. Aliquots of 3×10E6 purified TEM cells were kept frozen in Cryo-SFM medium (PromoCell, cat #C-29912) in gas phase nitrogen until used. Cell purity was verified by flow cytometry analysis of 200 000 PFA-fixed cells previously labelled with monoclonal antibodies anti-CD4-PerCP-Cy5.5 (BD Pharmigen, cat #332772), anti-CD8-V500 (BD Biosciences, cat #561617), anti-CD14-Pacific Blue (Biolegend, cat #325616), anti-CD45 RA-FITC (Biolegend, cat #304106) and anti-CCR7-APC (in CD4+ Effector Memory T Cell Isolation Kit, Miltenyi, cat #130-094-125).
TEM cells were resuspended in complete RPMI medium composed of: RPMI 1640 (Gibco, cat #31870-025), 10% heat inactivated fetal bovine serum (Sigma, cat #F7524), 2 mM GlutaMAX (Gibco, cat #35050-038), 1 mM sodium pyruvate 100× (Gibco, cat #11360-039), 1% MEM non-essential amino acids solution (Gibco, cat #11140-035) and 100 U/mL penicillin, 100 µg/mL streptomycin (Sigma-Aldrich, cat #11074440001). 5,000 cells per well were plated onto flat clear bottom 384 well plates (Corning, cat #3770). 5,000 Dynabeads Human T-Activator CD3/CD28 (Gibco, cat #11132D) were added to each well for cell stimulation. Finally, 10 doses of test compound, originally prepared in DMSO by serial semi-log step dilution, were also added to cells in triplicate wells. Final DMSO concentration in wells was 0.1% in a total volume of 100 µL complete medium. Plates were incubated for 24 h at 37° C. in 5% CO2 atmosphere. After incubation, cell suspensions were centrifuged at 400×g and culture supernatants were recovered and stored at −80° C. Cell viability was assessed by flow cytometry after staining the cells with Fixable Viability Dye eFluor 780 (Invitrogen, cat #65-0865-14). IL-2 levels were determined in cell supernatants using an HTRF human IL-2 detection kit (Cisbio, cat #62HIL02PEH). IL-2 data at the different compound doses were fitted to a 4-parameter logistic curve to determine IC50 values, corresponding to the compound concentration leading to 50% reduction of the maximal IL-2 levels observed in each experiment. Viability data were analysed similarly to exclude cytotoxicity as a cause of IL-2 decrease (see Table 1).

[4] = binned A to H, read-out: PKC-theta HTRF pIC50 (binned) (converted)
[5] = read-out: PKC-theta HTRF pIC50 (converted)
[6] = human CD4+ TEM cells, CD3/CD28 bead stimulation, binned A to G, read-out: PKC-theta IL2 pIC50 (binned) (converted)
[7] = human CD4+ TEM cells, CD3/CD28 bead stimulation, read-out: PKC-theta IL2 pIC50 (converted)

SMILES	PKC-theta/PKC-delta selectivity [1]	PKC-theta/PKC-delta selectivity (binned) [1]	IC50 [2, 4] [nM]	IC50 [2, 5] [nM]	IC50 [3, 6] [nM]	IC50 [3, 7] [nM]	PKC-theta HTRF pIC50 [2]	IC50 ([3]; Homo sapiens, read-out: PKC-theta IL2 pIC50 (binned) (converted)) [nM]	IC50 ([3]; Homo sapiens, read-out: PKC-theta IL2 pIC50 (converted)) [nM]
CN[C@@]1(C)C(=O)Nc2nccc(-c3nn(C4(CC#N)CCC4)c4ccccc34)c21 (single isomer, unassigned) [Example 94]	23	C (C means a ratio of between 20 and 30)	3.16 to 10	3.98	100 to 316	126	–	–	–
CN[C@]1(C)C(=O)Nc2nccc(-c3nn(C4(CC#N)CCC4)c4ccccc34)c21 (single isomer, unassigned) [Example 95]	25	C (C means a ratio of between 20 and 30)	≤ 1	0.126	1 to 3.16	1.58	–	–	–
CC[C@@]1(C)C(=O)Nc2nccc(-c3nn([C@@H]4CCNC[C@@H]4F)c4ccc(F)cc34)c21 (single isomer, unassigned) [Example 97]	23	C (C means a ratio of between 20 and 30)	1 to 3.16	2.51	31.6 to 100	39.8	–	–	–
CC[C@]1(C)C(=O)Nc2nccc(-c3nn([C@@H]4CCNC[C@@H]4F)c4ccc(F)cc34)c21 (single isomer, unassigned) [Example 98]	57	A (A means a ratio of between 50 and 120)	10 to 31.6	31.6	> 1000	1000	–	–	–
CC[C@@]1(C)C(=O)Nc2nccc(-c3nn([C@H]4CCNC[C@H]4F)c4ccc(F)cc34)c21 (single isomer, unassigned) [Example 99]	105	A (A means a ratio of between 50 and 120)	31.6 to 100	100	316 to 1000	398	–	–	–
O=c1[nH]c2nccc(-c3cnn(C4CCNCC4)c3)c2[nH]1 [Example 1]	1	G (G means a ratio of between 0 and 1)	316 to 1000	–	> 1000	3160	6.1	–	–
Cc1nn(C2CCNCC2)cc1-c1ccnc2[nH]c(=O)[nH]c12 [Example 2]	0.2	G (G means a ratio of between 0 and 1)	> 1000	–	> 1000	10000	5.1	–	–
O=c1[nH]c2nccc(-c3ccn(C4CCNCC4)c3)c2[nH]1 [Example 3, 7-[1-(4-piperidyl)pyrrol-3-yl]-1,3-dihydroimidazo[4,5-b]pyridin-2-one; Dihydrochloride]	1	F (F means a ratio of between 1 and 5)	100 to 316	–	–	–	6.7	> 1000	6310

The next lines start with results.

PKC-theta/PKC-delta selectivity [1]	PKC-theta/PKC-delta selectivity (binned) [1]	IC50 [2, 4] [nM]	IC50 [2, 5] [nM]	IC50 [3, 6] [nM]	IC50 [3, 7] [nM]	PKC-theta HTRF pIC50 [2]	SMILES	IC50 ([3]; Homo sapiens, read-out: PKC-theta IL2 pIC50 (binned) (converted)) [nM]	IC50 ([3]; Homo sapiens, read-out: PKC-theta IL2 pIC50 (converted)) [nM]
10	E (E means a ratio of between 5 and 10)	3.16 to 10	3.98	31.6 to 100	50.1	–	CO[C@@]1(C)C(=O)Nc2nccc(-c3nn([C@H]4CCNC[C@H]4F)c4ccccc34)c21 (single isomer, unassigned) [Example 93]	–	–
29	C (C means a ratio of between 20 and 30)	3.16 to 10	7.94	31.6 to 100	100	–	CC[C@]1(C)C(=O)Nc2nccc(-c3nn([C@H]4CCNC[C@H]4F)c4ccc(F)cc34)c21 (single isomer, unassigned) [Example 100]	–	–
42	B (B means a ratio of between 30 and 50)	10 to 31.6	25.1	316 to 1000	631	–	CC[C@]1(C)C(=O)Nc2nccc(-c3nn([C@@H]4CCNC[C@@H]4F)c4cc(F)ccc34)c21 (single isomer, unassigned) [Example 101]	–	–
22	C (C means a ratio of between 20 and 30)	1 to 3.16	2.51	31.6 to 100	63.1	–	CC[C@@]1(C)C(=O)Nc2nccc(-c3nn([C@@H]4CCNC[C@@H]4F)c4cc(F)ccc34)c21 (single isomer, unassigned) [Example 103]	–	–
17	D (D means a ratio of between 10 and 20)	≤ 1	0.794	10 to 31.6	12.6	–	CC[C@@]1(C)C(=O)Nc2nccc(-c3nn([C@H]4CCNC[C@H]4F)c4cc(F)ccc34)c21 (single isomer, unassigned) [Example 104]	–	–
33	B (B means a ratio of between 30 and 50)	10 to 31.6	12.6	316 to 1000	398	–	CC[C@@]1(C)C(=O)Nc2nccc(-c3nn([C@@H]4CCNC[C@@H]4F)c4ccccc34)c21 (single isomer, unassigned) [Example 105]	–	–
15	D (D means a ratio of between 10 and 20)	≤ 1	0.794	10 to 31.6	12.6	–	CC[C@]1(C)C(=O)Nc2nccc(-c3nn([C@@H]4CCNC[C@@H]4F)c4ccccc34)c21 (single isomer, unassigned) [Example 106]	–	–
23	C (C means a ratio of between 20 and 30)	10 to 31.6	20	316 to 1000	631	–	CC[C@@]1(C)C(=O)Nc2nccc(-c3nn([C@H]4CCNC[C@H]4F)c4ccccc34)c21 (single isomer, unassigned) [Example 107]	–	–
17	D (D means a ratio of between 10 and 20)	1 to 3.16	3.16	31.6 to 100	50.1	–	CC[C@]1(C)C(=O)Nc2nccc(-c3nn([C@H]4CCNC[C@H]4F)c4ccccc34)c21 (single isomer, unassigned) [Example 108]	–	–
